Reference: patent US8383094B2, “Hepatitis C virus inhibitors” (Bristol-Myers Squibb Company, priority 2008, dated 2013)

System: HCV 1b genotype
Assay: HCV Replicon assay (HCV-neo replicon cells, wild-type)
Type: cell-based
Conditions: Hepatitis C virus, HCV 1b genotype replicon; range class A-D; read-out: 1b EC50 (in μM or range)

C[C@@H](C(=O)N1CCC[C@H]1C(=O)Nc1ccc(C#Cc2ccc(NC(=O)[C@@H]3CCCN3C(=O)[C@H](C)c3ccccc3)cc2)cc1)c1ccccc1 [VN9, (2S,2′S)-N,N′-(1,2-ethynediyldi-4,1-phenylene)bis(1-((2R)-2-phenylpropanoyl)-2-pyrrolidinecarboxamide)]
EC50: < 0.00457 µM
